Experimental data: US6858591B2, “Antibiotic AA 896 analogs” (Wyeth Holdings Corporation, priority 2001, dated 2005)
Converted amounts (≈) assume the structure as drawn. Where two headings read alike, the source gives them in different places.

Experiments:
Test in all cases: In vitro MIC, broth dilution
Type in all cases: cell-based
[1] = test system: M. morganii GC 4531; settings: Morganella morganii, GC4531
[2] = test system: C. albicans GC 3066; settings: Candida albicans, GC3066
[3] = test system: E. coli GC 3226; settings: Escherichia coli, GC3226
[4] = test system: E. coli GC 4560; settings: Escherichia coli, GC4560
[5] = test system: E. cloacae GC 3783; settings: Enterobacter cloacae, GC3783
[6] = test system: E. coli GC 2203; settings: Escherichia coli, GC2203
[7] = test system: P. aeruginosa GC 4532; settings: Pseudomonas aeruginosa, GC4532
[8] = test system: K. pneumoniae GC 4534; settings: Klebsiella pneumoniae, GC4534
[9] = test system: S. marcescens GC 4077; settings: Serratia marcescens, GC4077
[10] = test system: P. aeruginosa GC 2214; settings: Pseudomonas aeruginosa, GC2214
[11] = test system: E. faecalis GC 842; settings: Enterococcus faecalis, GC842
Method: (§1) The minimum inhibitory concentration (MIC), the lowest concentration of the antibiotic which inhibits growth of the test organism, is determined by the broth dilution method using Muller-Hinton II […] (Baltimore Biological Laboratories) following the recommendations of National Committee for Clinical Laboratory Standards. [Reference for the Methods for dilution antimicrobial susceptibility tests for bacteria that grow aerobically: National Committee for Clinical Laboratory Standards, 1997. Approved standard M7-A National Committee for Clinical Laboratory Standards, Wayne, Pa.] An inoculum level of 5×10^5 CFU/ml, and a range of antibiotic concentrations (64-0.06 μg/ml) is used. The MIC is determined after the microtiter plates are incubated for 18 hours at 35° C. in an ambient air incubator. The test organisms comprise a spectrum of gram-positive bacteria including Staphylococcus sp., Streptococcus sp. and Enterococcus sp. These organisms include recent clinical isolates that are resistant to methicillin, penicillin and vancomycin.

[12] = test system: E. faecalis GC 4555; settings: Enterococcus faecalis, GC4555
Method: as §1

[13] = test system: CNS GC 4547
Method: as §1

[14] = test system: E. faecalis GC 2242; settings: Enterococcus faecalis, GC2242
Method: as §1

[15] = test system: S. aureus GC 2216; settings: Staphylococcus aureus, GC2216
Method: as §1

[16] = test system: CNS GC 4537
Method: as §1

[17] = test system: CNS GC 4538
Method: as §1

[18] = test system: S. aureus GC 1131; settings: Staphylococcus aureus, GC1131
Method: as §1

[19] = test system: S. aureus GC 4536; settings: Staphylococcus aureus, GC4536
Method: as §1

[20] = test system: E. coli GC 4559; settings: Escherichia coli, GC4559
[21] = M. morganii GC 4531, read-out: MIC
[22] = C. albicans GC 3066, read-out: MIC
[23] = E. cloacae GC 3783, read-out: MIC
[24] = P. aeruginosa GC 4532, read-out: MIC
[25] = K. pneumoniae GC 4534, read-out: MIC
[26] = S. marcescens GC 4077, read-out: MIC
[27] = P. aeruginosa GC 2214, read-out: MIC
[28] = E. faecalis GC 842, read-out: MIC
[29] = E. faecalis GC 4555, read-out: MIC
[30] = E. faecalis GC 2242, read-out: MIC
[31] = S. aureus GC 2216, read-out: MIC
[32] = S. aureus GC 1131, read-out: MIC
[33] = S. aureus GC 4536, read-out: MIC

| SMILES | MIC [1, 21] [µg/mL] | MIC [2, 22] [µg/mL] | MIC ([3]; E. coli GC 3226, read-out: MIC) [µg/mL] | MIC ([4]; E. coli GC 4560, read-out: MIC) [µg/mL] | MIC [5, 23] [µg/mL] | MIC ([6]; E. coli GC 2203, read-out: MIC) [µg/mL] | MIC [7, 24] [µg/mL] | MIC [8, 25] [µg/mL] | MIC [9, 26] [µg/mL] | MIC [10, 27] [µg/mL] | MIC [11, 28] [µg/mL] | MIC [12, 29] [µg/mL] | MIC ([13]; CNS GC 4547, read-out: MIC) [µg/mL] | MIC [14, 30] [µg/mL] | MIC [15, 31] [µg/mL] | MIC ([16]; CNS GC 4537, read-out: MIC) [µg/mL] | MIC ([17]; CNS GC 4538, read-out: MIC) [µg/mL] | MIC [18, 32] [µg/mL] | MIC [19, 33] [µg/mL] | MIC ([20]; E. coli GC 4559, read-out: MIC) [µg/mL] | also measured |
| --- | --- | --- | --- | --- | --- | --- | --- | --- | --- | --- | --- | --- | --- | --- | --- | --- | --- | --- | --- | --- | --- |
| COc1ccc(Cn2c(=O)ccn([C@@H]3OC([C@H](O)[C@H](NCCCNC(=O)[C@H](CC(C)C)NC(=O)OCc4ccccc4)C(=O)OC(C)(C)C)[C@@H](O[Si](C)(C)C(C)(C)C)[C@H]3O[Si](C)(C)C(C)(C)C)c2=O)cc1 (stereo partly drawn) [Example 4, tert-Butyl (5S,12S)-12-[(R)-[(3R,4R,5R)-3,4-bis{[tert-butyl(dimethyl)silyl]oxy}-5-(3-(4-methoxybenzyl)-2,4-dioxo-3,4-dihydro-1(2H)-pyrimidinyl)tetrahydro-2-furanyl](hydroxy)methyl]-5-isobutyl-3,6-dioxo-1-phenyl-2-oxa-4,7,11-triazatridecan-13-oate] | > 128 | > 128 | > 128 | > 128 | > 128 | > 128 | > 128 | > 128 | > 128 | 128 (≈ 125 µM) | > 128 | > 128 | > 128 | 128 (≈ 125 µM) | > 128 | > 128 | > 128 | > 128 | > 128 | > 128 |  |
| COc1ccc(Cn2c(=O)ccn([C@@H]3OC([C@H](O)[C@H](NCCCNC(=O)[C@@H](N)CC(C)C)C(=O)OC(C)(C)C)[C@@H](O[Si](C)(C)C(C)(C)C)[C@H]3O[Si](C)(C)C(C)(C)C)c2=O)cc1 (stereo partly drawn) [Example 5, tert-Butyl (2S,3R)-2-[(3-{[(2S)-2-amino-4-methylpentanoyl]amino}propyl)amino]-3-[(3R,4R,5R)-3,4-bis{[tert-butyl(dimethyl)silyl]oxy}-5-(3-(4-methoxybenzyl)-2,4-dioxo-3,4-dihydro-1(2H)-pyrimidinyl)tetrahydro-2-furanyl]-3-hydroxypropanoate] | > 128 | > 128 | > 128 | > 128 | > 128 | > 128 | > 128 | > 128 | > 128 | > 128 | 16 (≈ 17.9 µM) | 8 (≈ 8.97 µM) | 64 (≈ 71.7 µM) | 4 (≈ 4.48 µM) | 8 (≈ 8.97 µM) | 4 (≈ 4.48 µM) | 8 (≈ 8.97 µM) | 32 (≈ 35.9 µM) | 16 (≈ 17.9 µM) | > 128 |  |
| CC(C)C[C@H](NC(=O)OCc1ccccc1)C(=O)NCCCN[C@H](C(=O)OC(C)(C)C)[C@@H](O)C1O[C@@H](n2ccc(=O)[nH]c2=O)[C@H](O[Si](C)(C)C(C)(C)C)[C@@H]1O[Si](C)(C)C(C)(C)C (stereo partly drawn) [Example 6, tert-Butyl (5S,12S)-12-[(R)-[(3R,4R,5R)-3,4-bis{[tert-butyl(dimethyl)silyl]oxy}-5-(2,4-dioxo-3,4-dihydro-1(2H)-pyrimidinyl)tetrahydro-2-furanyl](hydroxy)methyl]-5-isobutyl-3,6-dioxo-1-phenyl-2-oxa-4,7,11-triazatridecan-13-oate] | 128 (≈ 141 µM) | > 128 | > 128 | 128 (≈ 141 µM) | > 128 | > 128 | 128 (≈ 141 µM) | > 128 | > 128 | 128 (≈ 141 µM) | > 128 | > 128 | > 128 | 64 (≈ 70.6 µM) | > 128 | > 128 | > 128 | > 128 | > 128 | > 128 |  |
| CC(C)C[C@H](N)C(=O)NCCCN[C@H](C(=O)OC(C)(C)C)[C@@H](O)C1O[C@@H](n2ccc(=O)[nH]c2=O)[C@H](O[Si](C)(C)C(C)(C)C)[C@@H]1O[Si](C)(C)C(C)(C)C (stereo partly drawn) [Example 7, tert-Butyl (2S,3R)-2-[(3-{[(2S)-2-amino-4-methylpentanoyl]amino}propyl)amino]-3-[(3R,4R,5R)-3,4-bis{[tert-butyl(dimethyl)silyl]oxy}-5-(2,4-dioxo-3,4-dihydro-1(2H)-pyrimidinyl)tetrahydro-2-furanyl]-3-hydroxypropanoate] | 128 (≈ 166 µM) | 32 (≈ 41.4 µM) | > 128 | 32 (≈ 41.4 µM) | 128 (≈ 166 µM) | > 128 | 128 (≈ 166 µM) | 128 (≈ 166 µM) | 128 (≈ 166 µM) | 128 (≈ 166 µM) | 2 (≈ 2.59 µM) | 2 (≈ 2.59 µM) | 2 (≈ 2.59 µM) | 2 (≈ 2.59 µM) | 2 (≈ 2.59 µM) | 1 (≈ 1.3 µM) | 2 (≈ 2.59 µM) | 1 (≈ 1.3 µM) | 1 (≈ 1.3 µM) | > 128 |  |
| COc1ccc(Cn2c(=O)ccn([C@@H]3OC([C@@H](O)[C@H](NCCCNC(=O)[C@@H](NC(=O)OCc4ccccc4)[C@H](C)O)C(=O)OC(C)(C)C)[C@@H](O[Si](C)(C)C(C)(C)C)[C@H]3O[Si](C)(C)C(C)(C)C)c2=O)cc1 (stereo partly drawn) [Example 8, tert-Butyl (5S,12S)-12-[(S)-[(3R,4R,5R)-3,4-bis{[tert-butyl(dimethyl)silyl]oxy}-5-(3-(4-methoxybenzyl)-2,4-dioxo-3,4-dihydro-1(2H)-pyrimidinyl)tetrahydro-2-furanyl](hydroxy)methyl]-5-[(1S)-1-hydroxyethyl]-3,6-dioxo-1-phenyl-2-oxa-4,7,11-triazatridecan-13-oate] |  |  |  |  |  |  |  |  |  |  |  |  |  |  |  |  |  |  |  |  | MIC [1]: 64 µg/mL (≈ 63.1 µM); MIC [2]: 32 µg/mL (≈ 31.5 µM); MIC [3]: > 128 µg/mL; MIC [4]: 64 µg/mL (≈ 63.1 µM); MIC [5]: 64 µg/mL (≈ 63.1 µM); MIC [6]: 64 µg/mL (≈ 63.1 µM); MIC [7]: 64 µg/mL (≈ 63.1 µM); MIC [8]: 64 µg/mL (≈ 63.1 µM); MIC [9]: 64 µg/mL (≈ 63.1 µM); MIC [10]: 64 µg/mL (≈ 63.1 µM); MIC [11]: 64 µg/mL (≈ 63.1 µM); MIC [12]: 64 µg/mL (≈ 63.1 µM); MIC [13]: 128 µg/mL (≈ 126 µM); MIC [14]: 64 µg/mL (≈ 63.1 µM); MIC [15]: 128 µg/mL (≈ 126 µM); MIC [16]: 128 µg/mL (≈ 126 µM); MIC [17]: 128 µg/mL (≈ 126 µM); MIC [18]: 128 µg/mL (≈ 126 µM); MIC [19]: 128 µg/mL (≈ 126 µM); MIC [20]: > 128 µg/mL |
| COc1ccc(Cn2c(=O)ccn([C@@H]3OC([C@@H](O)[C@H](NCCCNC(=O)[C@@H](N)[C@H](C)O)C(=O)OC(C)(C)C)[C@@H](O[Si](C)(C)C(C)(C)C)[C@H]3O[Si](C)(C)C(C)(C)C)c2=O)cc1 (stereo partly drawn) [Example 9, tert-Butyl (2S,3S)-2-[(3-{[(2S,3S)-2-amino-3-hydroxybutanoyl]amino}propyl)amino]-3-[(3R,4R,5R)-3,4-bis{[tert-butyl(dimethyl)silyl]oxy}-5-(3-(4-methoxybenzyl)-2,4-dioxo-3,4-dihydro-1(2H)-pyrimidinyl)tetrahydro-2-furanyl]-3-hydroxypropanoate] | > 128 | 128 (≈ 145 µM) | > 128 | 128 (≈ 145 µM) | > 128 | > 128 | 128 (≈ 145 µM) | > 128 | > 128 | 128 (≈ 145 µM) | > 128 | 128 (≈ 145 µM) | 8 (≈ 9.09 µM) | 128 (≈ 145 µM) | 128 (≈ 145 µM) | 128 (≈ 145 µM) | 128 (≈ 145 µM) | 128 (≈ 145 µM) | 128 (≈ 145 µM) | > 128 |  |
